Read-outs that look alike come from different tables or passages of the source.
How the values were obtained:
Type in all cases: cell-based
SARS-CoV-2 = assay: microbe, parasite or virus in culture; conditions: Severe acute respiratory syndrome coronavirus 2, 48 h
[1] = test system: RSV-Fluc (Recombinant Respiratory Syncytial virus strain A2 containing the firefly luciferase reporter); assay: microbe, parasite or virus in culture; conditions: human respiratory syncytial virus, NHBE, 72 h, read-out: RSV-Fluc EC50 (nM, NHBE)
[2] = MT4 cytotoxicity analysis (CellTiter-Glo); conditions: human
Method: Example 79: MT4 Cytotoxicity Analysis
3-fold serially diluted compound in DMSO, ranging from 2.5 uM to 10 mM, were added by acoustic transfer (Echo) in quadruplicate into black 384-well plates at 200 nl/well. After compound addition, 40 ul MT-4 cells at 80,000/ml were added to each well using a MicroFlo liquid dispenser (BioTek, Winooski, VT) and the cells were cultured for five days at 37° C. Following the incubation, cell viability was determined by adding 35 μL of CellTiter-Glo viability reagent and mixed thoroughly using ViaFlo 384 well workstation. The mixture was incubated for at least 10 minutes at 25° C., and the luminescence signal was quantified on an EnVision plate reader.

## CCCCCCCCCCCCCCCCCCOC[C@H](COP(=O)(O)OC[C@H]1O[C@@](C#N)(c2ccc3c(N)ncnn23)[C@H](O)[C@@H]1O)Oc1c(C#N)cc(C)cc1C#N [Example 29, ((2R,3S,4R,5R)-5-(4-aminopyrrolo[2,1-f][1,2,4]triazin-7-yl)-5-cyano-3,4-dihydroxytetrahydrofuran-2-yl)methyl ((R)-2-(2,6-dicyano-4-methylphenoxy)-3-(octadecyloxy)propyl) hydrogen phosphate]
SARS-CoV-2
  EC50: 2.7 µM
[1]
  EC50: 70 nM
[2]; MT4 CC50 (nM)
  CC50 at 5 days: 500 nM

## CCCCCCCCCCCCCCCCCCOC[C@H](COP(=O)(O)OC[C@H]1O[C@@](C#N)(c2ccc3c(N)ncnn23)[C@H](O)[C@@H]1O)Nc1ccccc1C(=O)O [Example 31, 2-(((2R)-1-(((((2R,3S,4R,5R)-5-(4-aminopyrrolo[2,1-f][1,2,4]triazin-7-yl)-5-cyano-3,4-dihydroxytetrahydrofuran-2-yl)methoxy)(hydroxy)phosphoryl)oxy)-3-(octadecyloxy)propan-2-yl)amino)benzoic acid]
SARS-CoV-2
  EC50: 6.3 µM
[1]
  EC50: 260 nM
[2]; MT4 CC50 (nM)
  CC50 at 5 days: 38000 nM

## CCCCCCCCCCCCCCCCCCOC[C@H](COP(=O)(O)OC[C@H]1O[C@@](C#N)(c2ccc3c(N)ncnn23)[C@H](O)[C@@H]1O)OCc1cc(F)cc(S(C)(=O)=O)c1 [Example 32, ((2R,3S,4R,5R)-5-(4-aminopyrrolo[2,1-f][1,2,4]triazin-7-yl)-5-cyano-3,4-dihydroxytetrahydrofuran-2-yl)methyl ((R)-2-((3-fluoro-5-(methylsulfonyl)benzyl)oxy)-3-(octadecyloxy)propyl) hydrogen phosphate]
SARS-CoV-2
  EC50: 0.12 µM
[1]
  EC50: 40 nM
[2]; MT4 CC50 (nM)
  CC50 at 5 days: 340 nM

## CCCCCCCCCCCCCCCCCCOC[C@H](COCc1cc(F)cc(C#N)c1)OP(=O)(O)OC[C@H]1O[C@@](C#N)(c2ccc3c(N)ncnn23)[C@H](O)[C@@H]1O [Example 36, ((2R,3S,4R,5R)-5-(4-aminopyrrolo[2,1-f][1,2,4]triazin-7-yl)-5-cyano-3,4-dihydroxytetrahydrofuran-2-yl)methyl ((R)-1-((3-cyano-5-fluorobenzyl)oxy)-3-(octadecyloxy)propan-2-yl) hydrogen phosphate]
SARS-CoV-2
  EC50: 1.2 µM
[1]
  EC50: 190 nM
[2]; MT4 CC50 (nM)
  CC50 at 5 days: 28000 nM

## CCCCCCCCCCCCCCCCCCOC[C@H](COc1cc(F)cc(C#N)c1)OP(=O)(O)OC[C@H]1O[C@@](C#N)(c2ccc3c(N)ncnn23)[C@H](O)[C@@H]1O [Example 39, ((2R,3S,4R,5R)-5-(4-aminopyrrolo[2,1-f][1,2,4]triazin-7-yl)-5-cyano-3,4-dihydroxytetrahydrofuran-2-yl)methyl ((R)-1-(3-cyano-5-fluorophenoxy)-3-(octadecyloxy)propan-2-yl) hydrogen phosphate]
SARS-CoV-2
  EC50: 0.19 µM
[1]
  EC50: 78 nM
[2]; MT4 CC50 (nM)
  CC50 at 5 days: 2800 nM

## CCCCCCCCCCCCCCCCCCOC[C@H](COc1ccc(C#N)cn1)OP(=O)(O)OC[C@H]1O[C@@](C#N)(c2ccc3c(N)ncnn23)[C@H](O)[C@@H]1O [Example 41, ((2R,3S,4R,5R)-5-(4-aminopyrrolo[2,1-f][1,2,4]triazin-7-yl)-5-cyano-3,4-dihydroxytetrahydrofuran-2-yl)methyl ((R)-1-((5-cyanopyridin-2-yl)oxy)-3-(octadecyloxy)propan-2-yl) hydrogen phosphate]
SARS-CoV-2
  EC50: 0.13 µM
[1]
  EC50: 63 nM
[2]; MT4 CC50 (nM)
  CC50 at 5 days: 1900 nM

## CCCCCCCCCCCCCCCCCCOC[C@H](COP(=O)(O)OC[C@H]1O[C@@](C#N)(c2ccc3c(N)ncnn23)[C@H](O)[C@@H]1O)Nc1ccc(C#N)cn1 [Example 42, ((2R,3S,4R,5R)-5-(4-aminopyrrolo[2,1-f][1,2,4]triazin-7-yl)-5-cyano-3,4-dihydroxytetrahydrofuran-2-yl)methyl ((R)-2-((5-cyanopyridin-2-yl)amino)-3-(octadecyloxy)propyl) hydrogen phosphate]
SARS-CoV-2
  EC50: 4.6 µM
[1]
  EC50: 180 nM
[2]; MT4 CC50 (nM)
  CC50 at 5 days: 550 nM

## CCCCCCCCCCCCCCCCCCOC[C@H](COP(=O)(O)OC[C@H]1O[C@@](C#N)(c2ccc3c(N)ncnn23)[C@H](O)[C@@H]1O)OCc1cncc(S(C)(=O)=O)c1 [Example 43, ((2R,3S,4R,5R)-5-(4-aminopyrrolo[2,1-f][1,2,4]triazin-7-yl)-5-cyano-3,4-dihydroxytetrahydrofuran-2-yl)methyl ((R)-2-((5-(methylsulfonyl)pyridin-3-yl)methoxy)-3-(octadecyloxy)propyl) hydrogen phosphate]
SARS-CoV-2
  EC50: 0.079 µM
[1]
  EC50: 59 nM
[2]; MT4 CC50 (nM)
  CC50 at 5 days: 280 nM

## CCCCCCCCCCCCCCCCCC(=O)NC[C@H](COP(=O)(O)OC[C@H]1O[C@@](C#N)(c2ccc3c(N)ncnn23)[C@H](O)[C@@H]1O)OCc1cc(F)cc(C#N)c1 [Example 45, ((2R,3S,4R,5R)-5-(4-aminopyrrolo[2,1-f][1,2,4]triazin-7-yl)-5-cyano-3,4-dihydroxytetrahydrofuran-2-yl)methyl ((R)-2-((3-cyano-5-fluorobenzyl)oxy)-3-stearamidopropyl) hydrogen phosphate]
SARS-CoV-2
  EC50: 0.14 µM
[1]
  EC50: 82 nM
[2]; MT4 CC50 (nM)
  CC50 at 5 days: 950 nM

## CCCCCCCCCCCCCCCCCCOC[C@H](COc1ccc(C#N)nn1)OP(=O)(O)OC[C@H]1O[C@@](C#N)(c2ccc3c(N)ncnn23)[C@H](O)[C@@H]1O [Example 46, ((2R,3S,4R,5R)-5-(4-aminopyrrolo[2,1-f][1,2,4]triazin-7-yl)-5-cyano-3,4-dihydroxytetrahydrofuran-2-yl)methyl ((R)-1-((6-cyanopyridazin-3-yl)oxy)-3-(octadecyloxy)propan-2-yl) hydrogen phosphate]
SARS-CoV-2
  EC50: 0.12 µM
[1]
  EC50: 26 nM
[2]; MT4 CC50 (nM)
  CC50 at 5 days: 420 nM

## CCCCCCCCCCCCCCCCCCNC(=O)[C@H](COP(=O)(O)OC[C@H]1O[C@@](C#N)(c2ccc3c(N)ncnn23)[C@H](O)[C@@H]1O)OCc1cc(F)cc(C#N)c1 [Example 47, ((2R,3S,4R,5R)-5-(4-aminopyrrolo[2,1-f][1,2,4]triazin-7-yl)-5-cyano-3,4-dihydroxytetrahydrofuran-2-yl)methyl ((S)-2-((3-cyano-5-fluorobenzyl)oxy)-3-(octadecylamino)-3-oxopropyl) hydrogen phosphate]
SARS-CoV-2
  EC50: 0.12 µM
[1]
  EC50: 32 nM
[2]; MT4 CC50 (nM)
  CC50 at 5 days: 420 nM

## CCCCCCCCCCCCCCCCCCOC[C@H](COP(=O)(O)OC[C@H]1O[C@@](C#N)(c2ccc3c(N)ncnn23)[C@H](O)[C@@H]1O)NC(=O)c1ccccc1C#N [Example 58, ((2R,3S,4R,5R)-5-(4-aminopyrrolo[2,1-f][1,2,4]triazin-7-yl)-5-cyano-3,4-dihydroxytetrahydrofuran-2-yl)methyl ((R)-2-(2-cyanobenzamido)-3-(octadecyloxy)propyl) hydrogen phosphate]
SARS-CoV-2
  EC50: 5.1 µM
[1]
  EC50: 300 nM
[2]; MT4 CC50 (nM)
  CC50 at 5 days: 43000 nM

## CCCCCCCCCCCCCCOCCOP(=O)(O)OC[C@H]1O[C@@](C#N)(c2ccc3c(N)ncnn23)[C@H](O)[C@@H]1O [Example 59, [(2R,3S,4R,5R)-5-(4-Aminopyrrolo[2,1-f][1,2,4]triazin-7-yl)-5-cyano-3,4-dihydroxy-tetrahydrofuran-2-yl]methyl 2-tetradecoxyethyl hydrogen phosphate]
SARS-CoV-2
  EC50: 10 µM
[1]
  EC50: 170 nM
[2]; MT4 CC50 (nM)
  CC50 at 5 days: 16000 nM

## CCCCCCCCCCCCCCCCCOCCOP(=O)(O)OC[C@H]1O[C@@](C#N)(c2ccc3c(N)ncnn23)[C@H](O)[C@@H]1O [Example 60, [(2R,3S,4R,5R)-5-(4-aminopyrrolo[2,1-f][1,2,4]triazin-7-yl)-5-cyano-3,4-dihydroxy-tetrahydrofuran-2-yl]methyl 2-heptadecoxyethyl hydrogen phosphate]
SARS-CoV-2
  EC50: 2 µM
[1]
  EC50: 240 nM
[2]; MT4 CC50 (nM)
  CC50 at 5 days: 4800 nM

## CCCCCCCCCCCCCCSCCCOP(=O)(O)OC[C@H]1O[C@@](C#N)(c2ccc3c(N)ncnn23)[C@H](O)[C@@H]1O [Example 61, [(2R,3S,4R,5R)-5-(4-aminopyrrolo[2,1-f][1,2,4]triazin-7-yl)-5-cyano-3,4-dihydroxy-tetrahydrofuran-2-yl]methyl 3-tetradecylsulfanylpropyl hydrogen phosphate]
SARS-CoV-2
  EC50: 6.1 µM
[1]
  EC50: 200 nM
[2]; MT4 CC50 (nM)
  CC50 at 5 days: 12000 nM

## CCCCCCCCCCCCCCCCCSCCCOP(=O)(O)OC[C@H]1O[C@@](C#N)(c2ccc3c(N)ncnn23)[C@H](O)[C@@H]1O [Example 62, [(2R,3S,4R,5R)-5-(4-Aminopyrrolo[2,1-f][1,2,4]triazin-7-yl)-5-cyano-3,4-dihydroxy-tetrahydrofuran-2-yl]methyl 3-heptadecylsulfanylpropyl hydrogen phosphate]
SARS-CoV-2
  EC50: 9.8 µM
[1]
  EC50: 230 nM
[2]; MT4 CC50 (nM)
  CC50 at 5 days: 24000 nM

## CCCCCCCCCCCCCCCCCCOC[C@H](COP(=O)(O)OC[C@H]1O[C@@](C#N)(c2ccc3c(N)ncnn23)[C@H](O)[C@@H]1O)OCc1ccc(F)c(Cl)c1F [Example 64, [(2R,3S,4R,5R)-5-(4-Aminopyrrolo[2,1-f][1,2,4]triazin-7-yl)-5-cyano-3,4-dihydroxy-tetrahydrofuran-2-yl]methyl [(2R)-2-[(3-chloro-2,4-difluoro-phenyl)methoxy]-3-octadecoxy-propyl] hydrogen phosphate]
SARS-CoV-2
  EC50: 0.4 µM
[1]
  EC50: 86 nM
[2]; MT4 CC50 (nM)
  CC50 at 5 days: 3100 nM

## CCCCCCCCCCCCCCCCCCOC[C@H](CO[P@](O)(=S)OC[C@H]1O[C@@](C#N)(c2ccc3c(N)ncnn23)[C@H](O)[C@@H]1O)OCc1cc(F)cc(C#N)c1 [Example 68]
SARS-CoV-2
  EC50: 0.36 µM
[1]
  EC50: 120 nM
[2]; MT-4 cells, five days, CellTiter-Glo, read-out: MT4 CC50
  CC50 at 5 days: 670 nM
